Data from publication PMC7777204, “Locking mixed-lineage kinase domain-like protein in its auto-inhibited state prevents necroptosis” (Proceedings of the National Academy of Sciences of the …, 2020).

How the values were obtained:
Jurkat FADD−/− cells [1] = experiment: Jurkat FADD−/− necroptosis assay; format: cell-based; settings: Homo sapiens, 10 ng/mL huTNFα, 24 h, Cell Titer Glo viability, read-out: Jurkat NEC IC50
Protocol: (§1) For the Jurkat FADD^−/− Necroptosis assay, compounds were serially diluted in 100% dimethyl sulfoxide (DMSO) (Sigma-Aldrich catalog no. 41641), and 250 nL was transferred to a sterile 384-well microtiter plate (PerkinElmer catalog no. 6007688) via Echo liquid handler (LABCYTE). Five thousand Jurkat FADD ^−/− cells (ATCC catalog no. CRL-2572) in 20 µL of modified Roswell Park Memorial Institute medium (Gibco catalog no. 10491), 10% fetal calf serum (Gibco catalog no. 100500), 1x Anti/Anti (Gibco catalog no. 15240-062), 1x L-Glutamax (Gibco catalog no. 35050-087), and 1% PenStrep (SIGMA catalog no. P4333) were seeded into each well of the prepared assay plate with compound. Cells and compounds were incubated for 30 min at 37 °C (humidified incubator with 5% CO2). After incubation, 5 µL of recombinant human TNFα (huTNFα) (Biotrend catalog no. cyt-223; 10 ng/mL final concentration [f.c.]) was added to the cells, followed by an incubation of 24 h at 37 °C. Following the incubation, the experimental plates were equilibrated to room temperature (30 min) before 25 µL of Cell Titer Glo Luminescent Cell Viability Assay System reagent (Promega catalog no. G7571) was added to the plate wells, incubated at room temperature for ∼10 min. After incubation, the samples were analyzed for luminescence by using an Envision reader (PerkinElmer).
(§2) Each assay plate contained wells with “high” and “low” controls. High controls (100% CTL) were defined as cells treated with DMSO, and low controls (0% CTL) were defined as cells treated with 10 ng/mL recombinant huTNFα. IC50 values were calculated based on the percentage of control values using a four-parameter-fitting model.
(§3) All cellular assays were done for Cpd 1, Cpd 2, Cpd 3, Cpd 4, and Cpd 5 in duplicate and in quadruplet for NSA.

Jurkat FADD−/− cells [2] = experiment: Jurkat FADD−/− cytotox assay; format: cell-based; settings: Homo sapiens, without huTNFα, Cell Titer Glo viability, read-out: Jurkat TOX IC50
Protocol: as §1
(§4) MLKL antagonists were tested in cytotox assays by using Jurkat FADD^−/− and U937 cells according to the assay procedures described for the necroptosis assays, but without treatment with recombinant huTNFα and/or zVAD-fmk. High controls (100% CTL, no effect) were defined as cells treated with DMSO, and low controls (0% CTL) were defined as medium without cells (0% CTL, maximal effect).
as §3

U937 cells [3] = experiment: U937 necroptosis assay; format: cell-based; settings: Homo sapiens, U-937, huTNFα plus 10 µM zVAD-fmk, read-out: U937 NEC IC50
Protocol: as §1, §2
(§5) MLKL antagonists were also evaluated in a necroptosis assay with U937 cells ([26]) (ATCC catalog no. CRL-1593.2). The assay procedure with U937 cells was as described for the Jurakt FADD^−/− necroptosis assay with the following modifications: 8,000 cells were seeded per well, and, in addition to the recombinant huTNFα, cells were also incubated in the presence of 10 µM (f.c.) carbobenzoxy-valyl-alanyl-aspartyl-[O-methyl]-fluoromethylketone (zVAD-fmk) (Enzo Life Sciences catalog no. ALX-260-020). Low controls (0% CTL) were defined as cells treated with 100 ng/mL recombinant huTNFα plus 10 µM zVAD-fmk.
as §3

U937 cells [4] = experiment: U937 apoptosis assay; format: cell-based; settings: Homo sapiens, U-937, 100 ng/mL huTNFα plus 3 µM NSA, read-out: U937 APOP IC50
Protocol: as §5
Furthermore, MLKL antagonists were tested in a U937 apoptosis assay in the presence of 3 µM (f.c.) NSA (Tocris catalog no. 5025) and 100 ng/mL (f.c.) recombinant huTNFα in the same way as described for the U937 necroptosis assay. Low controls (0% CTL) were defined as cells treated with 100 ng/mL recombinant huTNFα plus 3 µM NSA.
as §3

U937 cells [5] = experiment: U937 cytotox assay; format: cell-based; settings: Homo sapiens, U-937, without huTNFα and zVAD-fmk, read-out: U937 TOX IC50
Protocol: as §5, §4, §3

[6] = biological target: T1, human MLKL executioner domain (WT) (Homo sapiens, UniProt Q8NB16); experiment: Functional NMR assay (detachment of α-helix 6), WT; format: biochemical; settings: for Inhibitory effect on MLKL activation (α-helix 6 detachment), in words: 12 mM NM + 500 µM IP6 + 500 µM xanthine compound, compared with Cpd 3 (Fig. 3C); for Population of the activated state (pact), α-helix 6 detached: 12 mM NM alone or 500 µM IP6 alone
T1 construct: 80 µM MLKL N-terminal executioner domain (residues 1 to 154) was used; GST (thrombin cleavage site) (cleaved yes)
T1 sequence (Q8NB16 1-154): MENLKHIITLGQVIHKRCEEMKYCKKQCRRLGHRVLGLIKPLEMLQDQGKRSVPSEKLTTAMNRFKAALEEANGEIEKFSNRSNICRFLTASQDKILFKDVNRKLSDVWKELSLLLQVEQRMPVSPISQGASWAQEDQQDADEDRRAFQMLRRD
Excerpt: To test the significance of the additional interaction between α-helix 6 and the four-helix bundle provided by the xanthine compounds stacking to the phenyl ring of Phe148, we used a described functional NMR assay ([12]). Binding of phytic acid (IP6) and the detergent β-D-nonylmaltoside (NM) led to the detachment of α-helix 6, which can be monitored in ^1H,^15N-correlation spectra by the altered chemical shift of the Hε1–Nε1 correlation of Trp133 and the backbone N–H correlation of Ala141 ([12]). […] Adding 12 mM NM or 500 µM IP6 led to the appearance of a second very weak peak reporting on the detached α-helix 6 with a population of the activated state (pact) of 1% and 4%, respectively (Fig. 3). […] Combining 12 mM NM and 500 µM IP6 induced a dramatic increase of the population of the detached state (pact 86%). […] To further validate the importance of the π–π stacking interaction between the xanthine and Phe148 in α-helix 6, we carried out the functional NMR assay with the F148A-mutated variant of MLKL. The removal of the phenyl group induced significant CSPs localized in close proximity to the mutation site, due to the removal of ring currents and, therefore, strong electronic changes. […] MLKL F148A was more sensitive to the addition of 12 mM NM, 500 µM IP6, or the combination thereof. In the spectra in the presence of NM and the combination of NM and IP6, a third Trp133 peak appeared, most likely reporting on a state similar to the active state. […] Thus, the stacking interaction of the xanthine core to Phe148 is vital for the inhibitory activity of these MLKL inhibitors.
Fig. 3. (A and B) The region of the NMR ^1H,^15N-correlation spectra of the MLKL executioner domain (protein concentration: 80 µM) containing the cross-peaks of Trp133 Nε1–Hε1 in the auto-inhibited state where α-helix 6 is attached to the four-helix bundle (inact. state) and in the active, detached state (act. state) are shown. The unliganded state is depicted in black, with 12 mM NM in cyan; 500 µM IP6 in orange; 500 µM Cpd 3 in blue; 12 mM NM and 500 µM IP6 in red; and 12 mM NM, 500 µM IP6, and 500 µM Cpd 3 in green. The spectra depicted in A are measured with the WT protein and in B with the F148A variant. […] Dark gray bars correspond to the WT, while light gray bars correspond to the F148A variant. The asterisk means that no active conformation could be detected. Double asterisks indicate data not determined.
For the functional NMR assay ^1H,^15N-correlation spectra were recorded on a Bruker Avance III HD 600-MHz NMR spectrometer equipped with a cryogenic QCI probe in 2.5-mm NMR tubes at 298 K. Spectra were recorded with 64 complex points in the indirect dimension, 96 scans, and an interscan delay of 2 s. For the samples, 80 µM MLKL N-terminal executioner domain (residues 1 to 154) was used in a 20 mM sodium phosphate buffer at pH 7.5 containing 150 mM sodium chloride and 1 mM TCEP. For the different conditions, either 500 µM IP6, 12 mM NM, or a combination of the two were used. The xanthine compounds were tested at 500 µM, while NSA, due to limited solubility, was tested only at 200 µM, which is sufficient to saturate MLKL. Spectra were analyzed, and peaks were integrated in CcpNnmr analysis ([39]).

C86S-mutated MLKL = settings: cited from earlier work

| SMILES | IC50 (U937 cells [4]) [µM] | Inhibitory effect on MLKL activation (α-helix 6 detachment), in words ([6]; WT) | Population of the activated state (pact), α-helix 6 detached ([6]; WT) [%] | IC50 (Jurkat FADD−/− cells [1]) [µM] | IC50 (Jurkat FADD−/− cells [2]) [µM] | IC50 (U937 cells [3]) [µM] | IC50 (U937 cells [5]) [µM] | Activity in MLKL knockout cells transfected with C86S-mutated MLKL (C86S-mutated MLKL) | Effect on α-helix 6 detachment, in words ([6]; WT MLKL:NSA complex (200 µM NSA), addition of 12 mM NM and 500 µM IP6) | Induction of the active state by compound alone ([6]; WT, compound alone (Cpd 3 500 µM, NSA 200 µM), no NM/IP6) |
| --- | --- | --- | --- | --- | --- | --- | --- | --- | --- | --- |
| CSc1nc2c(c(=O)n(C)c(=O)n2C)n1C [Cpd 5] | > 100 | abolished |  | > 100 | > 100 | > 100 | > 100 |  |  |  |
| O=P(O)(O)O[C@H]1[C@H](OP(=O)(O)O)[C@@H](OP(=O)(O)O)[C@H](OP(=O)(O)O)[C@@H](OP(=O)(O)O)[C@H]1OP(=O)(O)O [IP6, phytic acid] |  |  | 4 |  |  |  |  |  |  |  |
| CCCCCCCCCO[C@@H]1O[C@H](CO)[C@@H](O[C@H]2O[C@H](CO)[C@@H](O)[C@H](O)[C@H]2O)[C@H](O)[C@H]1O [NM, β-D-nonylmaltoside] |  |  | 1 |  |  |  |  |  |  |  |
| COc1nccnc1NS(=O)(=O)c1ccc(NC(=O)/C=C/c2ccc([N+](=O)[O-])s2)cc1 [NSA, Necrosulfonamide] | > 100 |  |  | 1.4 | 6.2 | 0.454 | 14.7 |  | complete population shift to the active α-helix detached state | α-helix 6 remains in the attached auto-inhibitory state |

More lines, main results first:

| IC50 (U937 cells [4]) [µM] | Inhibitory effect on MLKL activation (α-helix 6 detachment), in words ([6]; WT) | Population of the activated state (pact), α-helix 6 detached ([6]; WT) [%] | SMILES | IC50 (Jurkat FADD−/− cells [1]) [µM] | IC50 (Jurkat FADD−/− cells [2]) [µM] | IC50 (U937 cells [3]) [µM] | IC50 (U937 cells [5]) [µM] | Activity in MLKL knockout cells transfected with C86S-mutated MLKL (C86S-mutated MLKL) | Effect on α-helix 6 detachment, in words ([6]; WT MLKL:NSA complex (200 µM NSA), addition of 12 mM NM and 500 µM IP6) | Induction of the active state by compound alone ([6]; WT, compound alone (Cpd 3 500 µM, NSA 200 µM), no NM/IP6) |
| --- | --- | --- | --- | --- | --- | --- | --- | --- | --- | --- |
| > 100 | even less activated |  | Cn1c(=O)c2c(nc(S(C)(=O)=O)n2C)n(C)c1=O [Cpd 1] | 0.574 | 56.3 | 0.312 | > 100 | hampered |  |  |
| > 100 | even less activated |  | COCCOCn1c(S(C)(=O)=O)nc2c1c(=O)n(C)c(=O)n2C [Cpd 2] | 0.069 | 3.83 | 0.042 | 4.38 | hampered |  |  |
| > 100 | significantly reduced |  | Cn1c(=O)c2c(nc([S+](C)[O-])n2C)n(C)c1=O (centres unmarked) [Cpd 4] | 5.24 | > 100 | 3.17 | > 100 |  |  |  |
